Results published in patent US9006450B2 (Boehringer Ingelheim International GmbH, priority 2010, dated 2015).

Target: T1, human ACC2 (Homo sapiens, UniProt O00763)
T1 construct: made in house; host or cells: insect cells (baculoviral expression system)
Assay: ACC2 assay, spectrophotometric 384 well assay (NADH-linked, coupled lactate dehydrogenase/pyruvate kinase)
Type: biochemical
Details: ACC2 assay, hACC2 construct lacking 128 N-terminal amino acids, 25° C., 340 nm; read-out: IC50
Summary of the method: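 Human ACC2 lacking N-terminal 128 aa, baculovirus/insect-cell expressed, anion-exchange purified; 100 mM Tris pH 7.5, 10 mM citrate, 25 mM KHCO3, 1% DMSO. Started with 200 μM NADH and acetyl-CoA plus 500 μM ATP; PK/LDH-coupled A340 decrease read 15 min at 25° C. IC50 by nonlinear fit of low-control-subtracted slopes.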

T1 sequence (O00763 129-2458 limits assumed): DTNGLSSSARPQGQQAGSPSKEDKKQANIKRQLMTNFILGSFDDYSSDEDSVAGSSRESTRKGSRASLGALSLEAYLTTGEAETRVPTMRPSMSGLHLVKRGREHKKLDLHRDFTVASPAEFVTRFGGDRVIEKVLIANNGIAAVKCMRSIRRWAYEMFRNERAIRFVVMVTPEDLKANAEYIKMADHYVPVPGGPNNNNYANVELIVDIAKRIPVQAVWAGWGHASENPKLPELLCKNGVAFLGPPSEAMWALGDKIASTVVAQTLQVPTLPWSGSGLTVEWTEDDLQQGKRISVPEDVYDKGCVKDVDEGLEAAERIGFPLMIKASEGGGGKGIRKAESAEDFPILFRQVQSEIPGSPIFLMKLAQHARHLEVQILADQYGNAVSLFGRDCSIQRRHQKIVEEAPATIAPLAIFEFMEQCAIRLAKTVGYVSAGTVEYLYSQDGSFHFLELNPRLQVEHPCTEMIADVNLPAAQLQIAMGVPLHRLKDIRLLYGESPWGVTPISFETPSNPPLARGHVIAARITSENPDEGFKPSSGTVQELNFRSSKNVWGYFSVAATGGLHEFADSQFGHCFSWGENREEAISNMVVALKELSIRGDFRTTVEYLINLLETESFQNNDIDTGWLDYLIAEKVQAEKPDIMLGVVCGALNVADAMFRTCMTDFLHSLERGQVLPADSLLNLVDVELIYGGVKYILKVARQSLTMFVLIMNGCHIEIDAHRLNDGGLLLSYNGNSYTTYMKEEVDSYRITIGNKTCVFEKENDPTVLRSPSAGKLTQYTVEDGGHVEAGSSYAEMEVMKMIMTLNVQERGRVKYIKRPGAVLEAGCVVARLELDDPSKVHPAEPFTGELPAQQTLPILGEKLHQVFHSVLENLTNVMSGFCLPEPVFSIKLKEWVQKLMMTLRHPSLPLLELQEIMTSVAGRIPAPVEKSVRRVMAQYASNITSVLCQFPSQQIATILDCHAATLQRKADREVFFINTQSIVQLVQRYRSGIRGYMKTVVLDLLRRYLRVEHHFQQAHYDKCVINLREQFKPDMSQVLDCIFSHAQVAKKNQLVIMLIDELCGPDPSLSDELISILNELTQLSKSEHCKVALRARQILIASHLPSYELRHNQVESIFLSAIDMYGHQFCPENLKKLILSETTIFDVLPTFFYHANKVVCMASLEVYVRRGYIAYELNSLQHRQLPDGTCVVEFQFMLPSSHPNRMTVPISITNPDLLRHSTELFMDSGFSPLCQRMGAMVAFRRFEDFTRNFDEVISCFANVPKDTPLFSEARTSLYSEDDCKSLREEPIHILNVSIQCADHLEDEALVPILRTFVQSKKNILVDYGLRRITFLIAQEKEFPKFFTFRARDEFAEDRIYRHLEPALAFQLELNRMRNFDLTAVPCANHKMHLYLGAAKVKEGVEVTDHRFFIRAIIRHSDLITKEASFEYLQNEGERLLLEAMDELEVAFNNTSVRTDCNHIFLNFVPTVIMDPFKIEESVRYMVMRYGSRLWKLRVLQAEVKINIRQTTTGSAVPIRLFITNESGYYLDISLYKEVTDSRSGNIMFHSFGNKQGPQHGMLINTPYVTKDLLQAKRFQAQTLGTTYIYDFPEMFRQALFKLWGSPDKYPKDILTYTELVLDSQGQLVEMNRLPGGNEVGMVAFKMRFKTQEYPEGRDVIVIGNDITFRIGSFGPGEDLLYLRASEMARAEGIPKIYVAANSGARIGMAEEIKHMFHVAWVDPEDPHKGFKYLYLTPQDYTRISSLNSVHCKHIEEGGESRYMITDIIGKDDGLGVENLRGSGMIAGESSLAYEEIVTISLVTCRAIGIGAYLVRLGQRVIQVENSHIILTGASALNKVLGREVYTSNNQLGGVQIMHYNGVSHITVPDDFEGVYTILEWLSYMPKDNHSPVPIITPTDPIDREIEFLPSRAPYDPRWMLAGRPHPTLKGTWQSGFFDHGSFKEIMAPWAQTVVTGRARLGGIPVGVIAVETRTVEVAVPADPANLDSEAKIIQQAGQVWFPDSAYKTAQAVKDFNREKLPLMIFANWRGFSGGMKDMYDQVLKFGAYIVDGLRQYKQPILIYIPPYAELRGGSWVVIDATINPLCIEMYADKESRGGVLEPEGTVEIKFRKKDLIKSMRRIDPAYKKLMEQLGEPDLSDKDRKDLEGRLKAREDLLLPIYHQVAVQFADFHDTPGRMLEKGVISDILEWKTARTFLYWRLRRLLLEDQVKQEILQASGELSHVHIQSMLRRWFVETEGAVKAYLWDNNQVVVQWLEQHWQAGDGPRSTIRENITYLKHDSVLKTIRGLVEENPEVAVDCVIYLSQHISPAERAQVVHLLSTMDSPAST

Row | SMILES | IC50 [nM]
1 | CC(=O)N[C@@H](C)c1ccc(C2CCN(c3ccnc(-c4ccc5c(c4)OCO5)n3)CC2)cc1 [Example 22.1, (S)—N-(1-{4-[1-(2-Benzo[1,3]dioxol-5-yl-pyrimidin-4-yl)-piperidin-4-yl]-phenyl}-ethyl)-acetamide] | 1100
2 | CC(=O)N[C@@H](C)c1ccc(C2CCN(c3cc(-c4ccc5c(c4)OCO5)ncn3)CC2)cc1 [Example 22.2] | 2500
3 | CC(=O)N[C@@H](C)c1ccc(C2CCN(c3nccc(-c4ccc5c(c4)OCO5)n3)CC2)cc1 [Example 22.3] | 1000
4 | CCOc1cccc(-c2nccc(N3CCC(c4ccc([C@H](C)NC(C)=O)cc4)CC3)n2)c1 [Example 22.4] | 390
5 | CC(=O)N[C@@H](C)c1ccc(C2CCN(c3ccnc(-c4ccc(C#N)s4)n3)CC2)cc1 [Example 22.5] | 940
6 | CCOc1ccc(-c2nccc(N3CCC(c4ccc([C@H](C)NC(C)=O)cc4)CC3)n2)cc1 [Example 22.6] | 1200
7 | CCOc1cccc(-c2cc(N3CCC(c4ccc([C@H](C)NC(C)=O)cc4)CC3)ncn2)c1 [Example 22.7] | 4100
8 | CC(=O)N[C@@H](C)c1ccc(C2CCN(c3cc(-c4ccc(C#N)s4)ncn3)CC2)cc1 [Example 22.8] | 2900
9 | CCOc1ccc(-c2cc(N3CCC(c4ccc([C@H](C)NC(C)=O)cc4)CC3)ncn2)cc1 [Example 22.9] | 3100
10 | CCOc1cccc(-c2ccnc(N3CCC(c4ccc([C@H](C)NC(C)=O)cc4)CC3)n2)c1 [Example 22.10] | 240
11 | CC(=O)N[C@@H](C)c1ccc(C2CCN(c3nccc(-c4ccc(C#N)s4)n3)CC2)cc1 [Example 22.11] | 390
12 | CCOc1ccc(-c2ccnc(N3CCC(c4ccc([C@H](C)NC(C)=O)cc4)CC3)n2)cc1 [Example 22.12] | 3300
13 | CC(=O)N[C@@H](C)c1ccc(C2CCN(c3cc(-c4ccc5[nH]ccc5c4)ncn3)CC2)cc1 [Example 22.13] | 440
14 | CC(=O)N[C@@H](C)c1ccc(C2CCN(c3ncc(-c4nc5ccccc5[nH]4)cn3)CC2)cc1 [Example 23.1, (S)—N-[1-(4-{1-[5-(1H-Benzoimidazol-2-yl)-pyrimidin-2-yl]-piperidin-4-yl}-phenyl)-ethyl]-acetamide] | 290
15 | CCCNc1ccc(N2CCC(c3ccc([C@H](C)NC(C)=O)cc3)CC2)cc1 [Example 24.1, (S)—N-(1-{4-[1-(4-(Propylamino)phenyl)-piperidin-4-yl]-phenyl}-ethyl)-acetamide] | 1000
16 | CCNc1ccc(N2CCC(c3ccc([C@H](C)NC(C)=O)cc3)CC2)cc1 [Example 24.2] | 1900
17 | CC(=O)N[C@@H](C)c1ccc(C2CCN(c3ccc(NCC(C)C)cc3)CC2)cc1 [Example 24.3] | 1100
18 | CC(=O)N[C@@H](C)c1ccc(C2CCN(c3ccc(NCC4CC4)cc3)CC2)cc1 [Example 24.4] | 1300
19 | CC(=O)N[C@@H](C)c1ccc(C2CCN(c3nc(C(C)C)no3)CC2)cc1 [Example 25.1, (S)—N-(1-{4-[1-(3-Isopropyl-[1,2,4]oxadiazol-5-yl)-piperidin-4-yl]-phenyl}-ethyl)-acetamide] | 2700
20 | CCc1noc(N2CCC(c3ccc([C@H](C)NC(C)=O)cc3)CC2)n1 [Example 25.2] | 10300
21 | CC(=O)N[C@@H](C)c1ccc(C2CCN(c3nc(-c4ccccc4)no3)CC2)cc1 [Example 25.3] | 950
22 | CC(=O)N[C@@H](C)c1ccc(C2CCN(c3noc(-c4ccccc4)n3)CC2)cc1 [Example 26.1, (S)—N-(1-{4-[1-(5-Phenyl-[1,2,4]oxadiazol-3-yl)-piperidin-4-yl]-phenyl}-ethyl)-acetamide] | 1900
23 | CCc1nc(N2CCC(c3ccc([C@H](C)NC(C)=O)cc3)CC2)no1 [Example 26.2] | 4100
24 | CC(=O)N[C@@H](C)c1ccc(C2CCN(c3noc(C(C)C)n3)CC2)cc1 [Example 26.3] | 710
25 | COCc1nc(N2CCC(c3ccc([C@H](C)NC(C)=O)cc3)CC2)no1 [Example 26.4] | 9100
26 | CC(=O)N[C@@H](C)c1ccc(C2CCN(c3ccc(OCC4CC4C)cc3)CC2)cc1 (stereo partly drawn) [Example 27.1, N-((1S)-1-(4-(1-(4-((2-methylcyclopropyl)methoxy)phenyl)-piperidin-4-yl)phenyl)-ethyl)acetamide] | 150
27 | CC(=O)N[C@@H](C)c1ccc(C2CCN(c3ccc(OCC4(CC#N)CC4)cc3)CC2)cc1 [Example 27.3] | 860
28 | CC(=O)N[C@@H](C)c1ccc(C2CCN(c3cccc(C(=O)O)c3)CC2)cc1 [Example 28.1, (S)-3-(4-(4-(1-Acetamidoethyl)phenyl)piperidin-1-yl)benzoic acid] | 9300

The remaining lines, values ahead:

Row | IC50 [nM] | SMILES
29 | 1600 | CC(=O)N[C@@H](C)c1ccc(C2CCN(c3cccc(C(=O)N4CCc5ccccc5C4)c3)CC2)cc1 [Example 29.1, (S)—N-(1-(4-(1-(3-(1,2,3,4-Tetrahydroisoquinoline-2-carbonyl)phenyl)piperidin-4-yl)phenyl)ethyl)acetamide]
30 | 1700 | CC(=O)N[C@@H](C)c1ccc(C2CCN(c3cccc(C(=O)N4Cc5ccccc5C4)c3)CC2)cc1 [Example 29.2]
31 | 6700 | CCNC(=O)c1cccc(N2CCC(c3ccc([C@H](C)NC(C)=O)cc3)CC2)c1 [Example 29.3]
32 | 2700 | CCOc1ccc(N2CCC(c3ccc([C@H](C)NC(=O)CC(C)=O)cc3)CC2)cc1 [Example 30.1]
33 | 1600 | CCOc1ccc(N2CCC(c3ccc([C@H](C)NC(=O)CC(=O)OC)cc3)CC2)cc1 [Example 31.1, (S)-Methyl 3-(1-(4-(1-(4-Ethoxyphenyl)piperidin-4-yl)phenyl)ethylamino)-3-oxopropanoate]
34 | 7200 | CCOc1ccc(N2CCC(c3ccc([C@H](C)NC(=O)CC(=O)O)cc3)CC2)cc1 [Example 32.1, (S)-3-(1-(4-(1-(4-Ethoxyphenyl)piperidin-4-yl)phenyl)ethylamino)-3-oxopropanoic Acid]
35 | 1700 | CCOc1ccc(N2CCC(c3ccc([C@H](C)NC(=O)CC(N)=O)cc3)CC2)cc1 [Example 33.1, (S)—N-(1-{4-[1-(4-Ethoxyphenyl)piperidin-4-yl]phenyl}ethyl)malonamide]
36 | 8900 | CCOc1ccc(N2CCC(c3ccc([C@H](C)NC(=O)CC(=O)NC)cc3)CC2)cc1 [Example 33.2]
37 | 420 | CC(=O)N[C@@H](C)c1ccc(C2CCN(c3cnc(-c4ccccn4)s3)CC2)cc1 [Example 34.1, (S)—N-(1-(4-(1-(2-(Pyridin-2-yl)thiazol-5-yl)piperidin-4-yl)phenyl)ethyl)acetamide]
38 | 40 | CC(=O)N[C@@H](C)c1ccc(C2CCN(c3csc(-c4ccc(C(F)(F)F)cn4)n3)CC2)cc1 [Example 34.2]
39 | 5400 | CCOc1ccc(N2CCC(c3ccc([C@H](C)NC(=O)CN)cc3)CC2)cc1 [Example 35.1, (S)-2-Amino-N-(1-{4-[1-(4-ethoxyphenyl)piperidin-4-yl]phenyl}ethyl)acetamide]
40 | 1600 | CCOc1ccc(N2CCC(c3ccc([C@H](C)NC(=O)CN(C)C)cc3)CC2)cc1 [Example 36.1, (S)-2-(Dimethylamino)-N-(1-{4-[1-(4-ethoxyphenyl)piperidin-4-yl]phenyl}ethyl)acetamide]
41 | 23100 | CCOc1ccc(N2CCC(c3ccc([C@H](C)NC(C)=O)cc3)CC2)c(C(N)=O)c1 [Example 37.1, (S)-2-(4-(4-(1-Acetamidoethyl)phenyl)piperidin-1-yl)-5-ethoxybenzamide]
42 | 430 | CCOc1ccc(N2CCC(c3ccc([C@H](C)NC(C)=S)cc3)CC2)cc1 [Example 38.1, (S)-N-(1-(4-(1-(4-Ethoxyphenyl)piperidin-4-yl)phenyl)ethyl)ethanethioamide]
43 | 290 | CCOc1ccc(N2CCC(c3ccc([C@H](C)NC(C)=S)cc3)CC2)c(F)c1 [Example 38.2]
44 | 12000 | CC(=O)N(C)[C@@H](C)c1ccc(C2CCN(c3ccc(OCC4CC4)cc3)CC2)cc1 [Example 39.1, (S)—N-(1-(4-(1-(4-Cyclopropylmethoxyphenyl)piperidin-4-yl)phenyl)ethyl)-N-methylacetamide]
45 | 1500 | CCN(C(C)=O)[C@@H](C)c1ccc(C2CCN(c3ccc(OCC4CC4)cc3)CC2)cc1 [Example 39.2]
46 | 290 | CCCOc1ccc(N2CCC(c3ccc([C@H](C)NC(=O)C(F)(F)F)cc3)CC2)c(OC)c1 [Example 40.1, (S)-2,2,2-Trifluoro-N-{1-[4-(1-(2-methoxy-4-propoxyphenyl)piperidin-4-yl)phenyl]-ethyl}acetamide]
47 | 80 | CCOc1ccc(N2CCC(c3ccc([C@H](C)NC(=O)C(F)(F)F)cc3)CC2)cc1 [Example 40.2]
